Measurements from patent US10406120B2, “Methods and compositions for treating kidney disorders” (Golden Biotechnology Corporation, priority 2013, dated 2019).

How the values were obtained:
caspase-1 = assay: AcP-IgAN model: renal caspase-1 mRNA and protein; assay type: in vivo, B cell-deficient mice; conditions: AcP-IgAN mice
Procedure: (§1) B cell-deficient mice (B6.129S2-Igh-6tm1Cgn/J) were obtained from the Academia Sinica (Professor John T. Kung, Institute of Molecular Biology), and maintained at the animal center of the National Defense Medical Center, Taipei, Taiwan. AcP-IgAN was induced in the mice by daily injection of purified IgA anti-phosphorylcholine antibodies and pneumococcal C-polysaccharide (PnC) as described previously (Chao, et al., Kidney Int. 70:283-297; 2006). All animal experiments were performed with the approval of the Institutional Animal Care and Use Committee of The National Defense Medical Center, Taiwan, and were consistent with the NIH Guide for the Care and Use of Laboratory Animals.
(§2) Total cortical kidney RNA was extracted with TriZOL reagents (Invitrogen) from cortical tissue of the kidney. For first-strand cDNA synthesis, 1.5 μg of total RNA was used in a single-round reverse transcriptase reaction. The reaction mixture consisted of 0.9 μl of Oligo (dT) 12 to 18 primer, 1.0 mM deoxyribonucleotide triphosphate (dNTP), 1 μl first strand buffer, 0.4 mM dithiothreitol, 80 U of RNaseout recombinant ribonuclease inhibitor, and 300 U of superscript II RNase H (Invitrogen). […]
Each protein sample was run on a 10% SDS-PAGE gel. […] The membrane-bound antibody detected was incubated with chemiluminescent reagent plus (PerkinElmer Life Sciences, MA) and captured on x-ray film.

superoxide anion = assay: FSGS model: superoxide anion / ROS determination (lucigenin, DHE); assay type: in vivo, BALB/c mice; conditions: FSGS mice
Procedure: (§3) Experiments described herein were performed on 8-week-old female BALB/c mice. The FSGS mice were injected intravenously with a single dose of adriamycin (0.1 mg/10 g body weight). The mice were given Compound 1 six hours before adriamycin injection by gavage daily till sacrifice. BALB/c mice intraperitoneal injected with normal saline were used as normal controls, while ASLN mice given vehicle (corn oil) by gavage were used as disease controls. Mice were killed at day 7, 14, or 21 after disease induction, and spleen, renal cortical tissue, and blood samples collected and stored appropriately until analysis. All animal experiments were performed with the ethical approval of the Institutional Animal Care and Use Committee of The National Defense Medical Center, Taiwan and performed according to the ethical rules in the NIH Guide for the Care and Use of Laboratory Animals.
Kidney in-situ superoxide anion production was determined by DHE labeling according to the known method. (Wu, et al., Nephrol Dial Transplant, 2008, 23: 3082-3090, or Ka, et al., J. Am. Soc. Nephrol. 2007, 18:2473-2485) Fluorescent images were quantified by counting the percentage of positive nuclei in the total nuclei per kidney cross section. Sera and kidney tissues were assessed for superoxide anion according to the known method. (Wu, et al., J Pineal Res, 2001, 30: 147-156, or Ka, et al., J. Am. Soc. Nephrol. 2007, 18:2473-2485) For ROS levels of serum, urine, and renal tissue, the samples were incubated with Krebs-HEPES buffer, and lucigenin (Sigma-Aldrich Chemical Co, MO) at 1.25 mM was used as substrate. Luminescence counts were obtained in duplicate at 15 sec intervals by a microplate luminometer (Hidex Microplate Luminometer, Finland), as previously described (Kretzler, et al.,. Virchows Arch, 425: 181-193, 1994). The superoxide anion activity was expressed as relative luminescence units (RLU) per 15 min per mg of organ dry weight (i.e., RUL/15 min/mg) or RLU/15 min/ml.

MCP-1 = assay: AcP-IgAN model: serum MCP-1 ELISA; assay type: in vivo, B cell-deficient mice; conditions: AcP-IgAN mice, day 3 until day 28, vs control AcP-IgAN mice; only baseline levels
Procedure: as §1
Serum levels of IL-1β (eBiosceience, CA), IL-6 (eBiosceience), IL-18 (MBL, Japan), and MCP-1 (eBiosceience) were measured using commercial ELISA kits according to the manufacturer's instructions.

collagen I, III, and IV = assay: FSGS model: renal collagen accumulation (IHC); assay type: in vivo, BALB/c mice; conditions: FSGS mice
Procedure: as §3
For IHC, formalin-fixed and paraffin-embedded renal sections were prepared and incubated with primary antibodies against mouse Desmin (Lab Vision, CA, USA), CD3 (pan-T cell; Serotec, N.C., USA), F4/80 (monocytes/macrophages; Serotec), IL-6 (R&D Systems, MN, USA), NF-κB p65 (Cell Signaling Technology, MA, USA), collagen I, III, and IV (Southern Biotech, AL, USA), or TGF-β1 (Santa Cruz Biotechnology, CA, USA), biotinylated second antibodies (Dako, Glostrup, Denmark), and avidin-biotin-peroxidase complex (Dako). Semi-quantitative evaluation of staining was performed.

IL-1beta = assay: AcP-IgAN model: renal IL-1beta mRNA; assay type: in vivo, B cell-deficient mice
Procedure: as §1
as §2, with “(Invitrogen). Real-time PCR was performed on an ABI Prism 7700 Sequence Detection System (Applied Biosystems, CA). All of the probes and primers were Assays-on-Demand Gene expression products (Applied Biosystems).” for “(Invitrogen).”

[1] = day 14 to day 21, vs control FSGS mice

COC1=C(OC)[C@H](O)[C@H](C/C=C(\C)CC/C=C(\C)CCC=C(C)C)[C@@H](C)C1=O [Compound 1, Antroquinonol]
renal increase in caspase-1 protein levels (caspase-1; both day 3 and day 28, vs control AcP-IgAN mice): greatly inhibited
renal mRNA expression levels of caspase-1 (elevation) (caspase-1; day 3 until day 28, real-time PCR): greatly inhibited
superoxide anion levels in urine (superoxide anion; day 7 to day 21, vs control FSGS mice): significantly lowered
serum superoxide anion levels (superoxide anion; day 7 to day 21, vs control FSGS mice, to a level similar to normal control): effectively attenuated
in-situ ROS production in renal tissue (DHE fluorescence) (superoxide anion; day 14 and day 21): only very low DHE fluorescence
superoxide anion levels in the kidney (superoxide anion; day 14 and day 21, vs control FSGS mice, to a level similar to normal control): effectively attenuated
serum levels of MCP-1 (elevation) (MCP-1): greatly inhibited
renal expression of collagen I (IHC) (collagen I, III, and IV; [1]): significant suppression
renal expression of collagen IV (IHC) (collagen I, III, and IV; [1]): significant suppression
renal expression of collagen III (IHC) (collagen I, III, and IV; day 21, vs control FSGS mice): significant suppression
renal mRNA levels of IL-1beta (elevation) (IL-1beta; AcP-IgAN mice, day 28, vs control AcP-IgAN mice): significantly inhibited
renal IL-1beta mRNA expression (IL-1beta; all mice, day 3): no detectable increase
